From US5532240A, “Condensed thiophene compound and pharmaceutical use thereof” (Yoshitomi Pharmaceutical Industries, Ltd., priority 1991, dated 1996)
pKi: −log10 of the molar value. “Also recorded” adds a separate entry of the source. Where two headings read alike, the source gives them in different places.

Key:
dopamine 2 (D2) receptor = target: T1, dopamine 2 (D2) receptor (Rattus norvegicus, UniProt P61169); experiment: Affinity for dopamine 2 receptor (tritiated spiperone binding); set-up: species or system Wistar rats; details: rat corpus striatum synaptosomes; [3H]spiperone 0.2 nM; 37° C., 20 min
T1 construct: A synaptosome fraction was separated from corpus striatum; from tissue; host or cells: corpus striatum of 9-10 week-old Wistar rats, synaptosome fraction
Description: Affinity for dopamine 2 receptor
A specific binding of dopamine 2 (D2) receptor was tested according to the method described in Eur. J. Pharmacol. 46, 377 (1977).
A synaptosome fraction was separated from corpus striatum of 9-10 week-old Wistar rats, and suspended in 50 mM Tris-HCl buffer (pH 7.1) containing 120 mM sodium chloride, 5 mM potassium chloride, 2 mM calcium chloride, 1 mM magnesium chloride, 10 μM pargyline and 0.1% ascorbic acid for the experiment.
The test compound at several concentrations and tritiated spiperone (final concentration 0.2 nM) were added to the synaptosome suspension, and each mixture was incubated at 37° C. for 20 minutes. After the incubation, the mixture was filtered with suction through Whatman GF/B (trade mark) glass filter. The filter was washed with 50 mM Tris-HCl buffer (pH 7.7), and the radioactivity of the filter was measured by a liquid scintillation counter. Non-specific binding was determined in the presence of 10^-4 M (±)-sulpiride. The concentration necessary for 50% inhibition (IC50) was determined on a graph, and inhibition constant (Ki value) was calculated.

[1] = target: T2, serotonin 2 (5-HT2) receptor (Rattus norvegicus, UniProt P14842); experiment: Affinity for serotonin 2 receptor (tritiated ketanserin binding); set-up: species or system Wistar rats; details: rat hippocampus crude synaptosomes; [3H]ketanserin 0.2 nM; 37° C., 20 min
T2 construct: A crude synaptosome fraction was separated from hippocampus; from tissue; host or cells: hippocampus of 9-10 week-old Wistar rats, crude synaptosome fraction
Description: Affinity for serotonin 2 receptor
A specific binding of serotonin 2 (5-HT2) receptor was tested according to the method described in Mol. Pharmacol. 21, 301 (1981).
A crude synaptosome fraction was separated from hippocampus of 9-10 week-old Wistar rats, and suspended in 50 mM Tris-HCl buffer (pH 7.7) for the experiment. The test compound at several concentration and tritiated ketanserin (final concentration 0.2 nM) were added to the synaptosome suspension, and each mixture was incubated at 37° C. for 20 minutes. After the incubation, the mixture was filtered with suction through Whatman GF/B (trade mark) glass filter. The filter was washed with 50 mM Tris-HCl buffer (pH 7.7), and the radioactivity of the filter was measured by a liquid scintillation counter. Non-specific binding was determined in the presence of 10^-5 M mianserin. The concentration necessary for 50% inhibition (IC50) was determined on a graph, and inhibition constant (Ki value ) was calculated.

[2] = target: T3, serotonin 1A (5-HT1A) receptor (Rattus norvegicus, UniProt P19327); experiment: Affinity for serotonin 1A receptor (tritiated 8-OH-DPAT binding); set-up: species or system Wistar rats; details: rat hippocampus crude synaptosomes; [3H]8-OH-DPAT 0.2 nM; 37° C., 12 min
T3 construct: A crude synaptosome fraction was separated from hippocampus; from tissue; host or cells: hippocampus of 9-10 week-old Wistar rats, crude synaptosome fraction
T3 sequence (P19327 1-422): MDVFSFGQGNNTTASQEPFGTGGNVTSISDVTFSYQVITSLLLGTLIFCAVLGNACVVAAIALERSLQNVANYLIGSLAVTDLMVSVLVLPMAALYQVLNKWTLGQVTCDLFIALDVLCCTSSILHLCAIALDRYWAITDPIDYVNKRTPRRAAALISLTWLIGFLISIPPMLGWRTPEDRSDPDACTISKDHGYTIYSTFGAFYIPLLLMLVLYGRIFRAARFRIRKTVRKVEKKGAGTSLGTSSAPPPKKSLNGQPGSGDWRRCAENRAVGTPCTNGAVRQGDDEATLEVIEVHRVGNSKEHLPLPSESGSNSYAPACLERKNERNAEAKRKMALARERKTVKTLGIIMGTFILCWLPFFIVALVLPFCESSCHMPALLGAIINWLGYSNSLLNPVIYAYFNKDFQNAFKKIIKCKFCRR
Description: Affinity for serotonin 1A receptor
A specific binding of serotonin 1A (5-HT1A) receptor was tested according to the method described in J. Neurochem. 44, 1685 (1985).
A crude synaptosome fraction was separated from hippocampus of 9-10 week-old Wistar rats, and suspended in 50 mM Tris-HCl buffer (pH 7.4) containing 1 mM manganese chloride for the experiment. The test compound at several concentrations and tritiated 8-hydroxy-2-dipropyl-aminotetralin(8-OH-DPAT, final concentration 0.2 nM) were added to the synaptosome suspension, and each mixture was incubated at 37° C. for 12 minutes. After the incubation, the mixture was filtered with suction through Whatman GF/B (trade mark) glass filter. The filter was washed with 50 mM Tris-HCl buffer (pH 7.7), and the radioactivity of the filter was measured by a liquid scintillation counter. Non-specific binding was determined in the presence of 10^-5 M serotonin (5-HT). The concentration necessary for 50% inhibition (IC50) was determined on a graph, and inhibition constant (Ki value) was calculated.

[3] = system: apomorphine-induced hyperactivity; experiment: Anti-apomorphine action (in mouse); type: in vivo, male dd mice; details: oral, 60 min before 0.5 mg/kg s.c. apomorphine hydrochloride, movement lowered by 50%
Description: Anti-apomorphine action (in mouse)
Male dd mice at 3 per group were used for the experiment. The test compound was orally administered to the mice, and 60 minutes later, 0.5 mg/kg of apomorphine hydrochloride was subcutaneously administered. the movement for 20 minutes from immediately after the administration of apomorphine hydrochloride was measured using Valimex (Columbus, USA). Each group was tested four times, and the amount of the test compound necessary to lower the movement by 50% than that of a control group was calculated from a graph and taken as ED50.

[4] = system: ergometrine-induced head-twitches; experiment: Anti-ergometrine action (head-twitch); type: in vivo, male ddY mice; details: Mus musculus; oral, 60 min before 20 mg/kg i.p. ergometrine maleate; head-twitch vanished, Probit
Description: Male ddY mice at 12 per group were used for the experiment. The test compound was orally administered to the mice, and 60 minutes later, 20 mg/kg of ergometrine maleate was intraperitoneally administered. The amount of the test compound necessary to vanish the head-twitch reaction for 10 minutes from immediately after the administration of ergometrine maleate was calculated as ED50 value by Probit method.

D2 = details: cited from earlier work
[5] = system: negative symptoms, EPS, depression and internal secretion in patients; details: cited from earlier work
[6] = system: catalepsy induced by haloperidol; details: preclinical; cited from earlier work

T1 sequence (P61169 whole entry): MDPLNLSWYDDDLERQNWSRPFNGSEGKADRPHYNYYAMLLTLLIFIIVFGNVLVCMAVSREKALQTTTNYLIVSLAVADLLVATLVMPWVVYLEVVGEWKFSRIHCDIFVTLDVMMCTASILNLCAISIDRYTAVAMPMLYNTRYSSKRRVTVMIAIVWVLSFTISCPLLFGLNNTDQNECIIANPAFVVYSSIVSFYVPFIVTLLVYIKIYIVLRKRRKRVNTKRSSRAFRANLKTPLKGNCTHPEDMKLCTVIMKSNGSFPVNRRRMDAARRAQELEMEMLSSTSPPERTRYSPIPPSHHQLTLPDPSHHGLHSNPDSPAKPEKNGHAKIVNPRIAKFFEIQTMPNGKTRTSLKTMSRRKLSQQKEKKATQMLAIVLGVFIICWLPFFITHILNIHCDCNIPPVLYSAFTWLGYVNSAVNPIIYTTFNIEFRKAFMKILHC
T2 sequence (P14842 whole entry): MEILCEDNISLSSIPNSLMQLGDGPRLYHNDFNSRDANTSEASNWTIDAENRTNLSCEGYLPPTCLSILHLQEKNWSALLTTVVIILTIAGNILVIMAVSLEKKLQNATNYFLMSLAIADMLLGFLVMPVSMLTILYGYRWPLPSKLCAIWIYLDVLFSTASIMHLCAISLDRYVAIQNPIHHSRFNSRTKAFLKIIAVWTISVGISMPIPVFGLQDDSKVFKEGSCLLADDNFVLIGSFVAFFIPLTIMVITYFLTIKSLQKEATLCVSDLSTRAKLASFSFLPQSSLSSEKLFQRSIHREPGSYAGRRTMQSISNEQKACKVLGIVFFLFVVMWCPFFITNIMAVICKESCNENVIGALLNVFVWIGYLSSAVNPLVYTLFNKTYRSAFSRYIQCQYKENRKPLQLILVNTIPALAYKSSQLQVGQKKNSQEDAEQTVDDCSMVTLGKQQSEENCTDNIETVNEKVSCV

In the case of `O=C1CCCc2sc(CCN3CCC(c4noc5cc(F)ccc45)CC3)cc2N1` [Example 15, 2-(2-(4-(6-fluoro-1,2-benzisoxazol-3-yl)piperidin-1-yl)ethyl)-4,6,7,8-tetrahydro-5H-thieno[3,2-b]azepin-5-one], the pKi (dopamine 2 (D2) receptor) was 10.19, the pKi [1] was 9.49 and the pKi [2] was 8.80. It also gave an ED50 [3] of 0.063 mg/kg and an ED50 [4] of 0.089 mg/kg.

`Cc1sc2c(c1CCN1CCC(c3noc4cc(F)ccc34)CC1)NC(=O)CCC2` [Example 22, 3-(2-(4-(6-fluoro-1,2-benzoxazolyl-3-yl)piperidin-1-yl)ethyl)-2-methyl-4,6,7,8-tetrahydro-5H-thieno[3,2-b]azepin-5-one] gave a pKi (dopamine 2 (D2) receptor) of 9.28, a pKi [1] of 9.68 and a pKi [2] of 7.82. For the same compound, the ED50 [3] was 1.1 mg/kg and the ED50 [4] was 1.5 mg/kg.

For `CCc1sc2c(c1CCN1CCC(c3noc4cc(F)ccc34)CC1)CCN(C(C)=O)C2` [Example 32, 6-acetyl-2-ethyl-3-(2-(4-(6-fluoro-1,2-benzisoxazol-3-yl)piperidin-1-yl)ethyl)-4,5,6,7-tetrahydrothieno[2,3-c]pyridine], the pKi (dopamine 2 (D2) receptor) was 10.00, the pKi [1] was 10.07 and the pKi [2] was 7.27.

Compound `CC(=O)N1CCc2c(sc(CCN3CCC(c4noc5cc(F)ccc45)CC3)c2C)C1` [Example 42, 6-acetyl-2-(2-(4-(6-fluoro-1,2-benzisoxazol-3-yl)piperidin-1-yl)ethyl)-4,5,6,7-tetrahydro-3-methylthieno[2,3-c]pyridine] has a pKi (dopamine 2 (D2) receptor) of 9.64, a pKi [1] of 9.70 and a pKi [2] of 8.96. It also gave an ED50 [3] of 0.2 mg/kg and an ED50 [4] of 0.19 mg/kg.

Compound `CC(=O)N1CCc2cc(C(=O)CCCN3CCC(c4noc5cc(F)ccc45)CC3)sc2C1` [Example 43, 6-acetyl-2-(4-(4-(6-fluoro-1,2-benzisoxazol-3-yl)piperidin-1-yl)butyryl)-4,5,6,7-tetrahydrothieno[2,3-c]pyridine] has a pKi (dopamine 2 (D2) receptor) of 8.82, a pKi [1] of 9.96 and a pKi [2] of 7.06.

`CC(=O)N1CCc2c(sc(C)c2CCN2CCC(c3csc4cc(F)ccc34)CC2)C1` [Example 53, 6-acetyl-3-(2-(4-(6-fluorobenzo(b)thiophen-3-yl)piperidin-1-yl)ethyl)-4,5,6,7-tetrahydro-2-methylthieno[2,3-c]pyridine] gave a pKi (dopamine 2 (D2) receptor) of 9.82, a pKi [1] of 10.37 and a pKi [2] of 8.43.

For `CCc1c(CCN2CCC(c3noc4cc(F)ccc34)CC2)sc2c1CCN(C(C)=O)C2` [Example 73, 6-acetyl-2-(2-(4-(6-fluoro-1,2-benzisoxazol-3-yl)piperidin-1-yl)ethyl)-3-ethyl-4,5,6,7-tetrahydrothieno[2,3-c]pyridine], the pKi (dopamine 2 (D2) receptor) was 9.60, the pKi [1] was 10.09 and the pKi [2] was 9.80. The ED50 [3] was 0.25 mg/kg and the ED50 [4] was 0.35 mg/kg.

Work on `CCc1c(CCN2CCC(c3csc4cc(F)ccc34)CC2)sc2c1CCN(C(C)=O)C2` [Example 84, 6-acetyl-3-ethyl-2-(2-(4-(6-fluorobenzo-(b)thiophen-3-yl)piperidin-1-yl)ethyl)-4,5,6,7-tetrahydrothieno[2,3-c]pyridine] yielded a pKi (dopamine 2 (D2) receptor) of 9.68, a pKi [1] of 9.74 and a pKi [2] of 9.89. It also gave an ED50 [3] of 0.73 mg/kg and an ED50 [4] of 0.95 mg/kg.

With `CCc1c(CCN2CCC(c3coc4cc(F)ccc34)CC2)sc2c1CCN(C(C)=O)C2` [Example 85, 6-acetate-3-ethyl-2-(2-(4-(6-fluorobenzo(b)furan-3-yl)piperidin-1-yl)ethyl)-4,5,6,7-tetrahydro-thieno[2,3-c]pyridine] the pKi (dopamine 2 (D2) receptor) was 9.28, the pKi [1] was 9.42 and the pKi [2] was 9.51. It also gave an ED50 [3] of 0.79 mg/kg and an ED50 [4] of 0.52 mg/kg.

For `CCc1c(CCN2CCC(c3nsc4cc(F)ccc34)CC2)sc2c1CCN(C(C)=O)C2` [Example 86, 6-acetyl-3-ethyl-2-(2-(4-(6-fluoro-1,2-benzisothiazol-3-yl)piperidin-1-yl)ethyl)-4,5,6,7-tetrahydrothieno[2,3-c]pyridine], the pKi (dopamine 2 (D2) receptor) was 9.77, the pKi [1] was 10.04 and the pKi [2] was 9.23. The ED50 [3] was 0.54 mg/kg and the ED50 [4] was 0.27 mg/kg.

`CCc1c(CCN2CCC(c3coc4ccc(C)cc34)CC2)sc2c1CCN(C(C)=O)C2` [Example 145, 6-acetyl-3-ethyl-2-(2-(4-(5-methylbenzo(b)-furan-3-yl)piperidin-1-yl)ethyl)-4,5,6,7-tetrahydrothieno[2,3-c]pyridine] gave a pKi (dopamine 2 (D2) receptor) of 8.42, a pKi [1] of 8.55 and a pKi [2] of 9.85.

Compound `O=C1CCCc2sc(CCN3CCC(c4coc5cc(F)ccc45)CC3)cc2N1` [Example 147, 2-(2-(4-(6-fluorobenzo(b)furan-3-yl)piperidin-1-yl)ethyl)-4,6,7,8-tetrahydro-5H-thieno[3,2-b]azepin-5-one] has a pKi (dopamine 2 (D2) receptor) of 9.40, a pKi [1] of 9.07 and a pKi [2] of 9.49.

For `Cc1ccc2occ(C3CCN(CCc4cc5c(s4)CCCC(=O)N5)CC3)c2c1` [Example 148, 2-(2-(4-(5-methylbenzo(b)furan-3-yl)piperidin-1-yl)ethyl)-4,6,7,8-tetrahydro-5H-thieno[3,2-b]azepin-5-one], the pKi (dopamine 2 (D2) receptor) was 8.64, the pKi [1] was 8.07 and the pKi [2] was 9.62.

In the case of `Cc1nc2n(c(=O)c1CCN1CCC(c3noc4cc(F)ccc34)CC1)CCCC2` [Risperidone], the “D2 receptor antagonistic properties” value (D2) is listed as “potent”, the “EPS / side-effects in clinical use” value [5] is listed as “low EPS liability” and the “clinical effect on symptoms” value [5] is listed as “effective antipsychotic; also recorded: beneficial effects on the negative symptoms of schizophrenia”. The “EPS / side-effects in clinical use” value ([5]; listed as risperidone) was “EPS is appeared in high dose; also recorded: side-effect of internal secretion”.

For `O=C1CC2(CCCC2)CC(=O)N1CCCCN1CCN(c2ncccn2)CC1` [buspirone], the “clinical effect on symptoms” value [5] is listed as “improved the depression and EPS caused by haloperidol therapy” and the “effect on catalepsy induced by haloperidol” value [6] is listed as “reverse catalepsy induced by haloperidol”.

In the case of `Cc1nc2sccn2c(=O)c1CCN1CCC(=C(c2ccc(F)cc2)c2ccc(F)cc2)CC1` [ritanserin], the “EPS / side-effects in clinical use” value [5] is listed as “reduces the incidence of EPS caused by typical antipsychotic drug therapy” and the “clinical effect on symptoms” value [5] is listed as “ameliorates negative symptoms”.
